System: Subjects with Osteoarthritis of the Knee
Assay: Second Phase 2 study: safety (treatment-emergent adverse events)
Type: in vivo, human
Conditions: 8.75 mg/knee, BID, N = 70
Excerpt: Safety assessments will be performed at each visit and will include assessment of AEs, vital signs (blood pressure, pulse rate, and oral temperature), clinical laboratories, physical examination, skin irritation, and electrocardiograms (ECGs) as indicated in the study flow chart, Table 47.
Safety assessments will include AEs, vital signs (blood pressures, pulse rate, and oral temperature), clinical laboratories, physical examination, skin irritation, and ECGs at various time points during the study as indicated in the study flow chart.
Adverse events of interest include: local skin reactions around the treated knee(s), upper stomach pain, GI bleeding, serious cardiovascular side effects (e.g., thrombotic events, myocardial infarction, or stroke), jaundice, elevated liver function tests, and nausea.
Safety analyses will be conducted on the SAS. Safety parameters will be listed and summarized using standard descriptive statistics, as appropriate. No formal statistical analyses are planned.

CCN(CC)CCOC(=O)C(C)c1ccc(CC(C)C)cc1 (stereo not shown) [2-(diethylamino)ethyl 2-(4-isobutylphenyl)propionate]
Abdominal Discomfort: percentage of subjects with adverse events: 4.3%
Abdominal Discomfort: subjects with adverse events: 3
Abdominal Pain Upper: number of adverse events: 1
Abdominal Pain Upper: percentage of subjects with adverse events: 1.4%
Abdominal Pain Upper: subjects with adverse events: 1
Administration Site Conditions: number of adverse events: 1
Administration Site Conditions: percentage of subjects with adverse events: 1.4%
Administration Site Conditions: subjects with adverse events: 1
Alanine Aminotransferase Increased: number of adverse events: 1
Alanine Aminotransferase Increased: percentage of subjects with adverse events: 1.4%
Alanine Aminotransferase Increased: subjects with adverse events: 1
Application Site Irritation: number of adverse events: 1
Application Site Irritation: percentage of subjects with adverse events: 1.4%
Application Site Irritation: subjects with adverse events: 1
Back Pain: number of adverse events: 2(%)[2]
Back Pain: subjects with adverse events, number (percentage): 2(%)[2]
Blood Lactate Dehydrogenase Increased: number of adverse events: 1
Blood Lactate Dehydrogenase Increased: percentage of subjects with adverse events: 1.4%
Blood Lactate Dehydrogenase Increased: subjects with adverse events: 1
Diarrhoea: number of adverse events: 2
Diarrhoea: percentage of subjects with adverse events: 2.9%
Diarrhoea: subjects with adverse events: 2
Dizziness: number of adverse events: 2
Dizziness: subjects with adverse events, number (percentage): 2(2.9%)
Ear and Labyrinth Disorders: number of adverse events: 2
Ear and Labyrinth Disorders: percentage of subjects with adverse events: 2.9%
Ear and Labyrinth Disorders: subjects with adverse events: 2
Frequency of Positive Fecal Occult Blood Test: 6
Gastrointestinal Disorders: number of adverse events: 11
Gastrointestinal Disorders: percentage of subjects with adverse events: 14.3%
Gastrointestinal Disorders: subjects with adverse events: 10
Headache: number of adverse events: 6
Headache: subjects with adverse events, number (percentage): 4(5.7%)
Hypercholesterolaemia: number of adverse events: 5
Hypercholesterolaemia: percentage of subjects with adverse events: 7.1%
Hypercholesterolaemia: subjects with adverse events: 5
Hypertension: number of adverse events: 1
Hypertension: percentage of subjects with adverse events: 1.4%
Hypertension: subjects with adverse events: 1
Hypertriglyceridemia: number of adverse events: 3
Hypertriglyceridemia: percentage of subjects with adverse events: 4.3%
Hypertriglyceridemia: subjects with adverse events: 3
Hypoaesthesia: number of adverse events: 1
Hypoaesthesia: subjects with adverse events, number (percentage): 1(1.4%)
Infections and Infestations: number of adverse events: 20
Infections and Infestations: subjects with adverse events, number (percentage): 20(28.6%)
Influenza: number of adverse events: 1
Influenza: subjects with adverse events, number (percentage): 1(1.4%)
Investigations: number of adverse events: 5
Investigations: percentage of subjects with adverse events: 7.1%
Investigations: subjects with adverse events: 5
Joint Stiffness: number of adverse events: 1(%)[1]
Joint Stiffness: subjects with adverse events, number (percentage): 1(%)[1]
Metabolism and Nutrition Disorders: number of adverse events: 8
Metabolism and Nutrition Disorders: percentage of subjects with adverse events: 12.9%
Metabolism and Nutrition Disorders: subjects with adverse events: 8
Musculoskeletal and Connective Tissue Disorders, Overall Total: number of adverse events: 7
Musculoskeletal and Connective Tissue Disorders, Overall Total: subjects with adverse events, number (percentage): 7(10.0%)
Nausea: number of adverse events: 3
Nausea: percentage of subjects with adverse events: 4.3%
Nausea: subjects with adverse events: 3

Reference: patent US20240024273A1, “TOPICAL ADMINISTRATION OF 2-(DIETHYLAMINO)ETHYL 2-(4-ISOBUTYLPHENYL)PROPRIONATE FOR TREATMENT OF DISEASES” (TECHFIELDS PHARMA CO., LTD., priority 2020, published 2024)
